# Laboratory results from PubChem BioAssay (NCI).
#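 Cells were grown in 96-well plates and exposed to each compound for 48 hours at five concentrations; endpoints were interpolated linearly between bracketing concentrations, or set to the highest concentration if not reached. Here, GI50 denotes the concentration required for 50% inhibition of growth. TGI: total growth inhibition.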
# How the values were obtained:
# Test in all cases: DTP human tumour cell line panel, 48 h
# UACC-62 melanoma = tested on: UACC-62 melanoma
# SK-MEL-5 melanoma = tested on: SK-MEL-5 melanoma
# SNB-19 CNS = tested on: SNB-19 CNS
# SK-MEL-2 melanoma = tested on: SK-MEL-2 melanoma
# UACC-257 melanoma = tested on: UACC-257 melanoma
# EKVX NSCLC = tested on: EKVX NSCLC
# RXF 393 renal = tested on: RXF 393 renal
# NCI-H522 lung = tested on: NCI-H522 lung
# T-47D breast = tested on: T-47D breast
# HCC-2998 colon = tested on: HCC-2998 colon
SMILES,TGI (UACC-62 melanoma),TGI (SK-MEL-5 melanoma),TGI (SNB-19 CNS),TGI (SK-MEL-2 melanoma),TGI (UACC-257 melanoma),TGI (EKVX NSCLC),TGI (RXF 393 renal),TGI (NCI-H522 lung),TGI (T-47D breast),TGI (HCC-2998 colon),GI50 (UACC-62 melanoma),GI50 (HCC-2998 colon),GI50 (SK-MEL-5 melanoma),GI50 (SNB-19 CNS),GI50 (SK-MEL-2 melanoma),GI50 (UACC-257 melanoma),GI50 (EKVX NSCLC),GI50 (RXF 393 renal),GI50 (NCI-H522 lung)
Cc1cc2ccc(N)nc2[nH]c1=O,> 100 µM,> 100 µM,> 100 µM,> 100 µM,> 100 µM,> 100 µM,> 100 µM,> 100 µM,> 100 µM,,,,,,,,,,
CCCCC[C@H]1CCCCCCCCCC(=O)OC2C(O[C@@H]3OC(C)[C@H](OC(=O)[C@@H](C)CC)C(O[C@@H]4OC(C)[C@H](O)C(O)[C@@H]4O)[C@@H]3OC(=O)[C@H](C)CC)[C@H](OC3C(O)[C@@H](O)C(C)O[C@H]3O1)OC(CO)[C@H]2O (stereo not given in full),30.9 µM,30.9 µM,32.1 µM,30.5 µM,29.2 µM,36.7 µM,,34.2 µM,33.3 µM,31.8 µM,,,,,,,,,
C(#Cc1ccccc1)SC1=C(c2ccccc2)S/C(=C(\SC#Cc2ccccc2)c2ccccc2)S1,> 100 µM,> 100 µM,> 100 µM,,> 100 µM,> 100 µM,,> 100 µM,> 100 µM,> 100 µM,,,,,,,,,
COc1ccccc1NC(=S)N/N=C/c1cccc(C)n1,15.1 µM,47.3 µM,> 100 µM,> 100 µM,> 100 µM,> 100 µM,,> 54.8 µM,> 100 µM,> 100 µM,,,,,,,,,
NC(=O)Oc1ccccc1,,> 100 µM,> 100 µM,,> 100 µM,,> 100 µM,> 100 µM,> 100 µM,> 100 µM,,,,,,,,,
Cc1ccccc1NC(=O)Cc1csc(N=Nc2c(O)[nH]c3ccccc23)n1,> 100 µM,> 100 µM,> 100 µM,> 100 µM,> 100 µM,> 100 µM,69.5 µM,41.2 µM,,,,,,,,,,,
S=c1nc[nH]c2c1ncn2C1CCCO1 (stereo not given),> 100 µM,> 100 µM,> 100 µM,> 100 µM,,,> 100 µM,> 100 µM,,> 100 µM,,,,,,,,,
CCOC(=O)C(C/C=C/CO)N(C)C(=O)OC(C)(C)C (stereo not given),> 100 µM,> 100 µM,> 100 µM,> 100 µM,> 100 µM,> 100 µM,> 100 µM,61.4 µM,> 100 µM,,,,,,,,,,
Cc1c(O)c(=O)ccn1CCc1ccc(O)cc1,12.8 µM,51.7 µM,> 100 µM,,54.8 µM,93.3 µM,,,> 100 µM,,,,,,,,,,
N#Cc1nc(-c2cccc(-c3nc(C#N)c(N)o3)n2)oc1N,> 100 µM,> 100 µM,> 100 µM,> 100 µM,> 100 µM,> 100 µM,,> 100 µM,> 100 µM,> 100 µM,,,,,,,,,
CC(NC(=O)C(Cc1ccc(OC(=O)c2ccccc2)cc1)NC(=O)OC(C)(C)C)C(=O)NCC(=O)NC(Cc1ccccc1)C(=O)NN (stereo not given),> 100 µM,> 100 µM,> 100 µM,,,> 100 µM,> 100 µM,> 100 µM,> 100 µM,,,,,,,,,,
CCOC(=O)C(C(=O)COC(C)(C)C)[C@@H]1C=C[C@H](OC(C)=O)C1 (stereo not given in full),> 100 µM,,> 100 µM,> 100 µM,> 100 µM,> 100 µM,,,> 100 µM,> 100 µM,,,,,,,,,
Cc1ccc(S(=O)(=O)Nn2c(O)c(C#N)c(-c3ccc([N+](=O)[O-])cc3)c(C#N)c2=O)cc1,> 100 µM,> 100 µM,> 100 µM,> 100 µM,> 100 µM,> 100 µM,> 100 µM,> 100 µM,,> 100 µM,,,,,,,,,
C=C(C)[C@@H]1CC[C@]2(C(=O)NC(C)=O)CC[C@]3(C)[C@H](CC[C@@H]4[C@@]5(C)CCCNC(C)(C)[C@@H]5CC[C@]43C)[C@@H]12,3.11 µM,3.15 µM,2.96 µM,3.73 µM,3.75 µM,3.23 µM,3.26 µM,3.56 µM,,2.69 µM,1.73 µM,1.31 µM,1.76 µM,1.6 µM,1.92 µM,1.95 µM,1.6 µM,1.76 µM,1.66 µM
CC/C(=C\c1ccc(OC)cc1)c1ccc(OC)cc1,> 100 µM,80.7 µM,> 100 µM,> 100 µM,> 100 µM,> 100 µM,> 100 µM,> 100 µM,,> 100 µM,,,,,,,,,
CCOC(=O)CCC(NC(=O)c1ccc(Nc2nc3ccccc3nc2C(=O)OCC)cc1)C(=O)OCC (stereo not given),9.15 µM,> 100 µM,14 µM,24.4 µM,> 100 µM,40.1 µM,,16.7 µM,7.06 µM,> 100 µM,,,,,,,,,
CC1(C)CC(=O)C2=C(C1)OC1(CC2c2ccc(Cl)cc2)CC(c2ccc(Cl)cc2)C2=C(CC(C)(C)CC2=O)O1 (stereo not given),> 53.5 µM,31.4 µM,54.6 µM,43.8 µM,> 61.7 µM,34.4 µM,94.3 µM,27.6 µM,,38.5 µM,,,,,,,,,

SMILES,TGI (UACC-62 melanoma),TGI (SK-MEL-5 melanoma),TGI (SNB-19 CNS),TGI (SK-MEL-2 melanoma),TGI (UACC-257 melanoma),TGI (EKVX NSCLC),TGI (RXF 393 renal),TGI (NCI-H522 lung),TGI (T-47D breast),TGI (HCC-2998 colon),GI50 (UACC-62 melanoma),GI50 (HCC-2998 colon),GI50 (SK-MEL-5 melanoma),GI50 (SNB-19 CNS),GI50 (SK-MEL-2 melanoma),GI50 (UACC-257 melanoma),GI50 (EKVX NSCLC),GI50 (RXF 393 renal),GI50 (NCI-H522 lung)
O=C(O)c1ccc(N/C(=C(/C(Cl)=C(Cl)Cl)[N+](=O)[O-])n2nnc3ccccc32)cc1,> 100 µM,,> 100 µM,> 100 µM,> 100 µM,> 100 µM,,,> 100 µM,> 100 µM,,,,,,,,,
CC(C)(C)C1=C(Br)C(OC(=O)C(F)(F)F)(C(C)(C)C)OP1(=O)c1ccccc1 (stereo not given),95.4 µM,> 100 µM,> 100 µM,> 100 µM,> 100 µM,69 µM,,> 100 µM,> 100 µM,> 100 µM,,,,,,,,,
CC(C)c1ccc(/C=C2\CSCC3=C2N=C2SCC(=O)N2C3c2ccc(C(C)C)cc2)cc1 (stereo not given),> 100 µM,> 100 µM,,> 100 µM,> 100 µM,> 100 µM,,,> 100 µM,> 100 µM,,,,,,,,,
NN/C(=N\S(=O)(=O)c1ccc(S(=O)(=O)c2ccccc2)s1)Nc1ccc(Cl)cc1,33.5 µM,46.2 µM,> 100 µM,53.8 µM,67.5 µM,50.4 µM,47.6 µM,,59.3 µM,,,,,,,,,,
COc1ccc2c(c1)CCC/C2=N\NS(=O)(=O)c1c(C)cc(C)cc1C,42.6 µM,33.4 µM,> 100 µM,> 100 µM,> 100 µM,98.5 µM,,,53.9 µM,> 100 µM,,,,,,,,,
c1cc2c(cc1C1=NCCN1)c1cc(C3=NCCN3)ccc1n2CC1CCCCC1,,36.2 µM,46.3 µM,34.6 µM,59.3 µM,69.2 µM,> 100 µM,21.6 µM,84.7 µM,,,,,,,,,,
COC(=O)c1cc(/C=C\c2cc(OC)ccc2OC)ccc1OC,90.8 µM,34.5 µM,> 100 µM,74.2 µM,96.5 µM,88.9 µM,,45.6 µM,52.1 µM,45.7 µM,,,,,,,,,
C=C(C)[C@@H]1CC[C@]2(CO)CC[C@]3(C)[C@H](CC[C@@H]4[C@@]5(C)CC[C@H](NCO)C(C)(C)[C@@H]5CC[C@]43C)[C@@H]12,1.63 µM,1.59 µM,1.82 µM,1.83 µM,1.91 µM,1.64 µM,1.57 µM,2.01 µM,,,0.918 µM,,0.87 µM,0.95 µM,0.961 µM,0.935 µM,0.869 µM,0.842 µM,1.03 µM
CC1C2(C)OCC(C#N)(C(=N)O2)C1(C#N)C#N (stereo not given),76.1 µM,23.4 µM,> 100 µM,33.5 µM,71.2 µM,52.7 µM,65.7 µM,,30.2 µM,,,,,,,,,,
COc1ccc(-n2cnc3c(NC(Cc4ccccc4)C(=O)O)ncnc32)cc1 (stereo not given),> 100 µM,> 100 µM,,> 100 µM,> 100 µM,> 100 µM,,,> 100 µM,> 100 µM,,,,,,,,,
CCOC(=O)/C=C/[C@@H](CC)O[Si](C(C)C)(C(C)C)C(C)C,> 100 µM,> 100 µM,> 100 µM,> 100 µM,> 100 µM,> 100 µM,,> 100 µM,> 100 µM,> 100 µM,,,,,,,,,
COC(=O)C(NC(=O)OC(C)(C)C)P(=O)(OC)OC (stereo not given),> 100 µM,> 100 µM,> 100 µM,> 100 µM,> 100 µM,> 100 µM,> 100 µM,> 100 µM,> 100 µM,,,,,,,,,,
C(=C/c1nc2ccccc2o1)/c1ccc2c(c1)OCO2,> 45.5 µM,56.6 µM,38.6 µM,36.3 µM,> 100 µM,> 100 µM,41.9 µM,51.3 µM,,> 70.8 µM,,,,,,,,,
O=C1CC(c2ccccc2)S(=O)c2ccccc2N1 (stereo not given),> 100 µM,> 100 µM,> 100 µM,,> 100 µM,> 100 µM,,> 100 µM,> 100 µM,,,,,,,,,,
COC(=O)c1ccc(NCC2=C(Br)C(=O)C=CC2=O)cc1Cl,33.8 µM,41.1 µM,> 100 µM,52.6 µM,72.2 µM,27.9 µM,,21.2 µM,38.6 µM,> 100 µM,,,,,,,,,
CC(=O)OCC1OC(n2c(-c3ccccc3)c(N=Nc3ccc(C)cc3)c(C)c(C#N)c2=S)C(OC(C)=O)C(OC(C)=O)C1OC(C)=O (stereo not given),,,54.5 µM,40.9 µM,> 100 µM,,50.7 µM,,> 100 µM,> 100 µM,,,,,,,,,
